The source of these data is paper PMC6372667 (Experimental & Molecular Medicine, 2019).

Read-outs that look alike come from different tables or passages of the source.

The target in series [1] is T1, BACE1 (human recombinant β-secretase) (Homo sapiens, UniProt P56817). Put plainly: In vitro BACE1 FRET enzyme assay. It counts as biochemical. As to conditions: mean ± S.D. of three experiments. From the text: BACE1 (human recombinant β-secretase) ([…]) and the BACE1 FRET (fluorescence resonance energy transfer) assay kit Red were purchased from ThermoFisher Scientific (P2985; Waltham, MA, USA). […] For the cell culture experiment, Dulbecco’s modified Eagle’s medium (DMEM), Opti-MEM, fetal bovine serum (FBS), and penicillin/streptomycin were obtained from Capricorn Scientific (Ebsdorfergrund, Germany). β-secretase inhibitor III (β-SI) was purchased from Calbiochem (Darmstadt, Germany). The protease inhibitor mixture (a mixture of AEBSF, pepstatin A, E-64, bestain, leupeptin, and aprotinin) was purchased from Sigma-Aldrich (St. Louis, MO, USA). Enzyme-linked immunosorbent assay (ELISA) kits for Aβ40 and Aβ42 were obtained from IBL (Kunma, Japan). All chemicals and solvents used were reagent grade, purchased from commercial sources, and used as received.
The BACE1 FRET assay was carried out according to the manufacturer’s instructions with slight modifications as previously described. The assay was performed in a […] black plate using a multi-pipette.

Series [2] concerns the target T1, BACE1 (human recombinant β-secretase). Briefly: Kinetic analysis of BACE1 inhibition (Dixon and Lineweaver−Burk plots). The series is classed as biochemical. As to conditions: for Inhibition type BACE1: Dixon and Lineweaver−Burk plots. The protocol: (§1) The Ki was determined by interpretation of the Dixon plot, with the value of the x-axis intercept taken as −Ki.
Dixon plots for BACE1 inhibition by pterosin derivatives.
Dixon plots for BACE1 inhibition by pteroside derivatives.

A further series deals with T2, horse serum BChE (Equus caballus, UniProt P81908).
T2 construct: horse serum BChE (EC 3.1.1.8); purchased Sigma-Aldrich Co; host or cells: horse serum
Briefly: Kinetic analysis of BChE inhibition (Dixon and Lineweaver−Burk plots). It counts as biochemical. As to conditions: for Inhibition type BChE: Dixon and Lineweaver−Burk plots. The protocol:
as §1
Dixon plots for BChE inhibition by pterosin derivatives. (2S,3R)-Pterosin C (A), (2R,3R)-pterosin C (B), and (2R)-pterosin B (C) were tested in the presence of substrate concentrations of 0.2 mM (●), 0.4 mM (○), and 0.8 mM (▼).
Dixon plots for BChE inhibition by pteroside derivatives. (2R)-pteroside B (A), (2R,3R)-pteroside C (B), and (3S)-pteroside D (C) were tested in the presence of substrate concentrations of 0.2 mM (●), 0.4 mM (○), and 0.8 mM (▼). Lineweaver-Burk plots for BChE inhibition were generated with inhibitor concentrations of 0 µM (Δ), 4 µM (▼), 20 µM (○), and 100 µM (●) for (2R)-pteroside B (D); 0 µM (Δ), 0.8 µM (▼), 4 µM (○), and 20 µM (●) for (2R,3R)-pteroside C (E) and (3S)-pteroside D (F).

Another series can be described thus: in vitro. The series is classed as in vitro ADME. The settings on record: for BBB permeation class: classified by Pe, given in words. The protocol: PAMPA (parallel artificial membrane permeation assay) was used as a high-throughput assay to predict BBB permeation. Porcine polar brain lipid (PBL) was used as an artificial membrane to predict BBB permeation. Initially, the test compound was dissolved in DMSO at 5 mg/mL. This compound stock solution (10 µL) was diluted 200-fold in a universal buffer at pH 7.4 and mixed with a multi 8-channel pipette to obtain the secondary stock solution (final concentration 25 µg/mL). The secondary stock solution (200 µL) was placed in the donor wells. The filter membrane was coated with PBL in dodecane (4 mL volume of 20 mg/mL PBL in dodecane), and 5 µL of BBB-1 lipid solution was spread on PBL by pipette. The acceptor well was filled with […] of Acceptor Sink Buffer. The acceptor filter plate was cautiously positioned on the donor plate to assemble a “sandwich” (comprising an aqueous acceptor, artificial lipid membrane and aqueous donor with test compound on the top, middle and bottom, respectively). The test compound diffuses from the donor well to the acceptor well through the lipid membrane. After 4 h of incubation at pH 7.4 and 25 °C, the concentration of the compound in the acceptor, donor, reference and blank wells was estimated with a UV plate reader, Epoch Microplate Spectrophotometer (BioTek Instruments, Inc., Winooski, VT, USA). […] Samples were analyzed in quadruplets, and the average of the four runs was reported. To monitor the consistency of the analysis set, quality control standards were run with each sample set.
PAMPA-BBB, an in vitro artificial membrane permeability assay for the BBB, is one of the most reliable physicochemical screening tools in the early stage discovery of CNS-targeted drugs. The PAMPA-BBB system models the transcellular passive diffusion of chemicals across the BBB and measures strictly passive transport mechanisms via an artificial lipid membrane on effective permeability (Pe, cm/s).

For series [3], the system named is SH-SY5Y human neuroblastoma. Briefly: MTT cytotoxicity assay, SH-SY5Y. It counts as cell-based. The settings on record: 24 h. As for the experimental part: Cytotoxicity was assessed using the MTT assay. Briefly, the cells were seeded into a 96-well plate at a density of 1×10^5 cells per well in 100 µL of corresponding media and incubated at 37 °C in an incubator under 5% CO2 tension for 24 h. The culture media were then replaced with 100 µL of fresh serum-free media in the presence of varied concentrations of pterosin derivatives, and cells were incubated for an additional 24 h. The control was treated with an equal amount of DMSO present in the assay for a 5 mM concentration. Then, 100 µL of MTT solution (0.5 mg/mL in Phosphate Buffered Saline (PBS)) was added to each culture. To measure the proportion of surviving cells, the media were replaced with 100 µL of DMSO 2 h after the administration of MTT solution. The absorbance was measured at 570 nm using a spectrophotometric plate reader (Molecular Devices, Sunnyvale, CA, USA).

T2 sequence (P81908 whole entry): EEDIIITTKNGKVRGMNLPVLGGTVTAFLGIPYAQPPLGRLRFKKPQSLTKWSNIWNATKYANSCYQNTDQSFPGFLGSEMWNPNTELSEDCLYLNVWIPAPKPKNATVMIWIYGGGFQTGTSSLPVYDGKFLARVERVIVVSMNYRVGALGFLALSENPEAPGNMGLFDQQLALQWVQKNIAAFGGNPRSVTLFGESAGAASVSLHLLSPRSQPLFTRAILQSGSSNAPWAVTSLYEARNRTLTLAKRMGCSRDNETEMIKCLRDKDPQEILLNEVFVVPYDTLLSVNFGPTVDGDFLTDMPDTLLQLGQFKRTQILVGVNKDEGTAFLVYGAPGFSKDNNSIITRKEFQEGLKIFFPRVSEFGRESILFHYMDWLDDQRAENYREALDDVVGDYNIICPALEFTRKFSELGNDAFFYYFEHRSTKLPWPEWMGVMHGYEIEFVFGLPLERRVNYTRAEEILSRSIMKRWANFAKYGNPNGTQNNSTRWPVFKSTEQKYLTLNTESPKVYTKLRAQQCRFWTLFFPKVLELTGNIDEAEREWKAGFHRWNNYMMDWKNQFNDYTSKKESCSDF
T1 sequence (P56817 46-501): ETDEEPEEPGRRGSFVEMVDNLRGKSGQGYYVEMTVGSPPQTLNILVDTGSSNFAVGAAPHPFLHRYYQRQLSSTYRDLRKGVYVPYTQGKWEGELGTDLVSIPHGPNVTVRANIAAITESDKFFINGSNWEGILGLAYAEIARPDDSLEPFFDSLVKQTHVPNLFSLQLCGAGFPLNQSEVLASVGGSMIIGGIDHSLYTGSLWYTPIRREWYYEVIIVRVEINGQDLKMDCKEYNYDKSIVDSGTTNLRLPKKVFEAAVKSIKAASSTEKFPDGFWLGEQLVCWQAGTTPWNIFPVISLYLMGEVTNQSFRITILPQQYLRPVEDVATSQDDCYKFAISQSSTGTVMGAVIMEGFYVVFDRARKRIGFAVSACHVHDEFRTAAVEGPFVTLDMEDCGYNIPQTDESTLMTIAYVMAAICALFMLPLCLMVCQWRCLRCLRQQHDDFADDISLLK

As to `Cc1cc2c(c(C)c1CCO)C(=O)[C@H](C)C2` [(2R)-Pterosin B, (2R)-pterosin B], in series [1], the IC50 is 29.6 ± 3.5 µM. Also, in series [2], the Ki was found to be 38.3 µM and the “Inhibition type BACE1” value was “Noncompetitive”. Also, on horse serum BChE, the affinity corresponds to a Ki of 53.5 µM and the “Inhibition type BChE” value is on record as “Noncompetitive”. In addition, in “in vitro” (PAMPA-BBB), the “Pe fold higher than verapamil” value is 1.7 fold and the BBB permeation class entry was “high BBB permeation”. Moreover, in “in vitro” (from log Pe −4.22 versus literature log Pe of quercetin), the “Pe fold higher than quercetin” value is on record as “approximately 600 fold”. Moreover, the “Pe fold higher than berberine” value in the series “in vitro” (from log Pe −4.22 versus log Pe −5.8 of berberine) is given as “approximately 37 fold”. In addition, the Papp at 4 h, 25 µg/mL in the series “in vitro” (pig, PAMPA, 4 h, pH 7.4, 25 °C, mean ± SD of quadruple experiments, read-out: PAMPA-BBB permeability Pe) was 60.3 ± 9.8 ×10⁻⁶ cm/s. Also, in series [3], the “LD50 Based on MTT Assay, SY-SY5Y” value is >5,000 µM.

`Cc1cc2c(c(C)c1CCOC1OC(CO)C(O)C(O)C1O)C(=O)C(C)C2O` [(2R,3R)-Pteroside C, (2R,3R)-pteroside C]: in series [1], the IC50 was determined as 9.74 ± 1.9 µM. Also, the “Inhibition type BACE1” value in series [2] is “Mixed-type”. Moreover, the Ki was determined as 12.6 µM in series [2] (determined by Dixon plot, read-out: Ki BACE1) and 9.62 µM on horse serum BChE (determined by Dixon plot, read-out: Ki BChE). Further, the “Inhibition type BChE” value at horse serum BChE was “Mixed-type”. The BBB permeation class entry in the series “in vitro” (PAMPA-BBB) is recorded as “very low BBB permeability”. The “LD50 Based on MTT Assay, SY-SY5Y” value in series [3] is >5,000 µM.
